According to the NIST ThermoML archive (doi:10.1021/je901020a):

Key:
[1] = refractive index (Na D-line) (dimensionless); xn = mol fraction of the nth substance listed; conditions: 101 kPa, Liquid, Standard Abbe refractometry
[2] = xn = mol fraction of the nth substance listed; conditions: 101 kPa, Liquid; for speed of sound: Pulse-echo method

C1CCCC1 [cyclopentane] + Cc1cc(C)cc(C)c1
Conditions	mass density, [2] [kg/m3]	refractive index, [1]	speed of sound, [2] [m/s]
298.15 K, x1 = 0.0383	857.8	1.49446	1332
298.15 K, x1 = 0.0884	853.3	1.49105	1325
298.15 K, x1 = 0.1869	843.9	1.48398	1311
298.15 K, x1 = 0.2531	837.5	1.47925	1302
298.15 K, x1 = 0.3849	823.5	1.46883	1283
298.15 K, x1 = 0.4879	811.9	1.4596	1269
298.15 K, x1 = 0.5891	799.5	1.45045	1255
298.15 K, x1 = 0.6926	786	1.4403	1241
298.15 K, x1 = 0.7807	774	1.43111	1229
298.15 K, x1 = 0.8901	757.9	1.41728	1216
298.15 K, x1 = 0.9487	748.6	1.40994	1210
298.15 K, x1 = 1	740	1.40292	1204
313.15 K, x1 = 0.0414	845.1	1.48675	1271
313.15 K, x1 = 0.0948	840.2	1.48324	1263
313.15 K, x1 = 0.1986	830.2	1.47585	1248
313.15 K, x1 = 0.2985	819.9	1.46786	1232
313.15 K, x1 = 0.4078	807.7	1.45906	1216
313.15 K, x1 = 0.4703	800.3	1.45335	1206
313.15 K, x1 = 0.6043	783.5	1.4411	1186
313.15 K, x1 = 0.7006	770.4	1.4312	1171
313.15 K, x1 = 0.8048	755.4	1.42003	1155
313.15 K, x1 = 0.9074	739.7	1.40648	1140
313.15 K, x1 = 0.9595	731.4	1.40014	1134
313.15 K, x1 = 1	725	1.39456	1130

Cc1cccc(C)c1 [1,3-dimethylbenzene] + C1CCCC1
x2 = 0
Conditions	mass density, [2] [kg/m3]	refractive index, [1]	speed of sound, [2] [m/s]
298.15 K	859.8	1.49466	1321
313.15 K	846.9	1.48653	1259

C1CCCCC1 [cyclohexane] + Cc1ccc(C)cc1
x1 = 1
Conditions	mass density, [2] [kg/m3]	refractive index, [1]	speed of sound, [2] [m/s]
298.15 K	773.9	1.4236	1255
313.15 K	759.6	1.41516	1182

Cc1cc(C)cc(C)c1 [1,3,5-trimethylbenzene] + C1CCCCC1
Conditions	mass density, [2] [kg/m3]	refractive index, [1]	speed of sound, [2] [m/s]
298.15 K, x2 = 0	861.1	1.49693	1336
298.15 K, x2 = 0.0459	857.3	1.4939	1331
298.15 K, x2 = 0.0956	853.1	1.49061	1326
298.15 K, x2 = 0.193	844.8	1.48396	1315
298.15 K, x2 = 0.2937	835.9	1.47698	1304
298.15 K, x2 = 0.3878	827.5	1.46995	1294
298.15 K, x2 = 0.4953	817.9	1.46201	1283
298.15 K, x2 = 0.598	808.6	1.45441	1274
298.15 K, x2 = 0.6944	799.7	1.44675	1265
298.15 K, x2 = 0.796	790.3	1.43896	1258
298.15 K, x2 = 0.8942	781.5	1.43119	1252
298.15 K, x2 = 0.9515	776.9	1.42697	1250
313.15 K, x2 = 0	848.8	1.48923	1277
313.15 K, x2 = 0.0488	844.8	1.48628	1271
313.15 K, x2 = 0.102	840.2	1.48264	1265
313.15 K, x2 = 0.2008	831.7	1.47604	1253
313.15 K, x2 = 0.3053	822.6	1.4688	1241
313.15 K, x2 = 0.416	812.4	1.46071	1229
313.15 K, x2 = 0.5105	803.5	1.4534	1219
313.15 K, x2 = 0.6084	794.3	1.44576	1209
313.15 K, x2 = 0.7068	785.2	1.43825	1200
313.15 K, x2 = 0.8092	775.9	1.43012	1191
313.15 K, x2 = 0.911	766.9	1.4222	1185
313.15 K, x2 = 0.9612	762.7	1.41833	1183

C1CCCCCCC1 [cyclooctane] + Cc1ccccc1C
Conditions	mass density, [2] [kg/m3]	refractive index, [1]	speed of sound, [2] [m/s]
298.15 K, x1 = 0.0513	871.8	1.49887	1347
298.15 K, x1 = 0.1015	868.4	1.49595	1348
298.15 K, x1 = 0.2	862.5	1.49039	1349
298.15 K, x1 = 0.3067	856.9	1.48468	1351
298.15 K, x1 = 0.4026	852.2	1.47987	1354
298.15 K, x1 = 0.5037	847.6	1.47508	1358
298.15 K, x1 = 0.6262	842.6	1.46963	1364
298.15 K, x1 = 0.7007	839.9	1.46653	1368
298.15 K, x1 = 0.8028	836.5	1.4626	1375
298.15 K, x1 = 0.8953	833.9	1.45933	1381
298.15 K, x1 = 0.9498	832.5	1.45752	1386
298.15 K, x1 = 1	831.5	1.45598	1391
313.15 K, x1 = 0.0508	859.7	1.49181	1289
313.15 K, x1 = 0.0905	857.3	1.48933	1289
313.15 K, x1 = 0.1697	852.7	1.48503	1289
313.15 K, x1 = 0.2967	845.9	1.47816	1291
313.15 K, x1 = 0.3824	841.6	1.47392	1293
313.15 K, x1 = 0.4839	836.9	1.46911	1296
313.15 K, x1 = 0.5878	832.4	1.46435	1300
313.15 K, x1 = 0.6869	828.6	1.46018	1305
313.15 K, x1 = 0.7892	825.1	1.45617	1310
313.15 K, x1 = 0.8891	822	1.45244	1317
313.15 K, x1 = 0.9368	820.7	1.45072	1321
313.15 K, x1 = 1	819.2	1.44877	1326
